Laboratory results: ChEMBL document CHEMBL5518238, “Structure-Activity Relationship (SAR) Studies of Novel Monovalent AR/AR-V7 Dual Degraders with Potent Efficacy against Advanced Prostate Cancer” (J Med Chem, 2024)
Activity calls are given as the source filed them. The rule behind the calls is not given here.

Test system: CWR22R
Experiment: Antitumor activity against human 22Rv1 cells xenografted in NSG mouse assessed as change in tumor volume at 30 mg/kg, IG administered once daily for 21 days
Format: functional, organism-based
Conditions: time 21.0 day

Row | SMILES | Activity
1 | CNC(=O)c1ccc(N2C(=S)N(c3ccc(C#N)c(C(F)(F)F)c3)C(=O)C2(C)C)cc1F [ENZALUTAMIDE] | Active
2 | C[C@]12CC[C@H](O)CC1=CC[C@@H]1[C@@H]2CC[C@]2(C)C(c3cccnc3)=CC[C@@H]12 [ABIRATERONE] | Active

Test system: CWR22R
Experiment: cells
Format: functional, cell-based
Conditions: Homo sapiens, 22Rv1, 48 h
Description: Antiproliferative activity against AR/AR-V7 positive human 22Rv1 cells assessed as inhibition of cell growth incubated for 48 hrs by CCK-8 assay

Row | SMILES | IC50 [µM]
3 | CC1(C)C(=O)N(c2ccc(C#N)c(C(F)(F)F)c2)C(=O)N1CCNc1ccc2ccccc2c1 | > 50
4 | CC1(C)C(=O)N(c2ccc(C#N)c(C(F)(F)F)c2)C(=O)N1CCNc1cccnc1 | 11.9
5 | CC1(C)C(=O)N(c2ccc([N+](=O)[O-])c(C(F)(F)F)c2)C(=O)N1CC(=O)NCc1ccccn1 | 26
6 | CC1(C)C(=O)N(c2ccc(C#N)c(C(F)(F)F)c2)C(=O)N1CCNc1cccc2ccncc12 | 7.8
7 | CC1(C)C(=O)N(c2ccc(C#N)c(C(F)(F)F)c2)C(=O)N1CC(=O)Nc1cccnc1 | 10.8
8 | CNC(=O)c1ccc(N2C(=S)N(c3ccc(C#N)c(C(F)(F)F)c3)C(=O)C2(C)C)cc1F [ENZALUTAMIDE] | 15.6
9 | CC1(C)C(=O)N(c2ccc(C#N)c(C(F)(F)F)c2)C(=O)N1CCCNc1cccc2ccncc12 | 21.8
10 | CC1(C)C(=O)N(c2ccc(C#N)c(C(F)(F)F)c2)C(=O)N1CCCn1ccc2cc(F)ccc21 | 13.6
11 | CC1(C)C(=O)N(c2ccc(C#N)c(C(F)(F)F)c2)C(=O)N1CCNc1cnc2ccccc2c1 | 49.5
12 | CC1(C)C(=O)N(c2ccc(C#N)c(C(F)(F)F)c2)C(=O)N1CCNc1ccc2cccnc2c1 | 2.2
13 | CC1(C)C(=O)N(c2ccc(C#N)c(C(F)(F)F)c2)C(=O)N1Cn1cc(F)cn1 | 14.5
14 | CC1(C)C(=O)N(c2ccc(C#N)c(C(F)(F)F)c2)C(=O)N1CCN(c1ccc2cccnc2c1)c1ccc2cccnc2c1 | > 50
15 | CC1(C)C(=O)N(c2ccc(C#N)c(C(F)(F)F)c2)C(=O)N1CCCNc1ccc2ccncc2c1 | 22
16 | CC1(C)C(=O)N(c2ccc(C#N)c(C(F)(F)F)c2)C(=O)N1CCCNc1ccc2ncccc2c1 | 27.3
17 | CC1(C)C(=O)N(c2ccc(C#N)c(C(F)(F)F)c2)C(=O)N1CCN(c1ccc2nccnc2c1)c1ccc2nccnc2c1 | 12.2
18 | CC1(C)C(=O)N(c2ccc(C#N)c(C(F)(F)F)c2)C(=O)N1CC(=O)Nc1ccnc2ccccc12 | 13.8
19 | CC1(C)C(=O)N(c2ccc(C#N)c(C(F)(F)F)c2)C(=O)N1CCCn1cc(C(F)(F)F)cn1 | 19.8
20 | C[C@]12CC[C@H](O)CC1=CC[C@@H]1[C@@H]2CC[C@]2(C)C(n3cnc4ccccc43)=CC[C@@H]12 [GALETERONE] | 11.6
21 | CC1(C)C(=O)N(c2ccc(C#N)c(C(F)(F)F)c2)C(=O)N1CCNc1ccc(C#N)c2ncccc12 | 2.8
22 | CC1(C)C(=O)N(c2ccc(C#N)c(C(F)(F)F)c2)C(=O)N1Cn1cc(Br)cn1 | 23.2

Row | SMILES | IC50 [µM]
23 | N#Cc1ccc(O[C@H]2CC[C@H](NC(=O)c3ccc(N4CCC(CN5CCN(c6cc7c(cc6F)C(=O)N(C6CCC(=O)NC6=O)C7=O)CC5)CC4)nn3)CC2)cc1Cl (stereo not given in full) [BAVDEGALUTAMIDE] | 3.9
24 | CC1(C)C(=O)N(c2ccc(C#N)c(C(F)(F)F)c2)C(=O)N1CCNc1ccc2ccccc2n1 | 11.7
25 | CC1(C)C(=O)N(c2ccc(C#N)c(C(F)(F)F)c2)C(=O)N1CC(=O)Nc1ccc2ncccc2c1 | 35.8
26 | CC1(C)C(=O)N(c2ccc(C#N)c(C(F)(F)F)c2)C(=O)N1CC(=O)Nc1cccc2ncccc12 | 24.9
27 | CC1(C)C(=O)N(c2ccc(C#N)c(C(F)(F)F)c2)C(=O)N1CC(=O)Nc1ccccn1 | 17
28 | CC1(C)C(=O)N(c2ccc(C#N)c(C(F)(F)F)c2)C(=O)N1CCNc1cccc2cccnc12 | > 50
29 | CC1(C)C(=O)N(c2ccc(C#N)c(C(F)(F)F)c2)C(=O)N1CCNc1ccc2ccncc2c1 | 2.3
30 | CC1(C)C(=O)N(c2ccc(C#N)c(C(F)(F)F)c2)C(=O)N1Cn1cc(C(F)(F)F)cn1 | 11.3
31 | CC1(C)C(=O)N(c2ccc([N+](=O)[O-])c(C(F)(F)F)c2)C(=O)N1CC(=O)NCc1cccnc1 | > 50
32 | CC1(C)C(=O)N(c2ccc(C#N)c(C(F)(F)F)c2)C(=O)N1CCNc1ccc([N+](=O)[O-])c2ncccc12 | 3.1
33 | CC1(C)C(=O)N(c2ccc([N+](=O)[O-])c(C(F)(F)F)c2)C(=O)N1CC(=O)Nc1cccnc1 | > 50
34 | CC1(C)C(=O)N(c2ccc(C#N)c(C(F)(F)F)c2)C(=O)N1CCn1cnc(C(F)(F)F)n1 | 10.3
35 | CC1(C)C(=O)N(c2ccc(C#N)c(C(F)(F)F)c2)C(=O)N1CC(=O)Nc1cccc2cccnc12 | 23.5
36 | CC1(C)C(=O)N(c2ccc(C#N)c(C(F)(F)F)c2)C(=O)N1CCN(c1ccc2ncncc2c1)c1ccc2ncncc2c1 | 15
37 | CC1(C)C(=O)N(c2ccc(C#N)c(C(F)(F)F)c2)C(=O)N1CCn1cc(Br)cn1 | 46.3
38 | Cc1ccc(NCCCN2C(=O)N(c3ccc(C#N)c(C(F)(F)F)c3)C(=O)C2(C)C)c2cccnc12 | 36.8
39 | CC1(C)C(=O)N(c2ccc(C#N)c(C(F)(F)F)c2)C(=O)N1CCn1cc(F)cn1 | 7.9
40 | CC1(C)C(=O)N(c2ccc(C#N)c(C(F)(F)F)c2)C(=O)N1CCNc1ncccn1 | 24.9
41 | CC1(C)C(=O)N(c2ccc(C#N)c(C(F)(F)F)c2)C(=O)N1CCCn1cc(Br)cn1 | 2
42 | CC1(C)C(=O)N(c2ccc(C#N)c(C(F)(F)F)c2)C(=O)N1CCNc1cncnc1 | 43.9

Row | SMILES | IC50 [µM]
43 | CC1(C)C(=O)N(c2ccc(C#N)c(C(F)(F)F)c2)C(=O)N1CCCn1cc(F)cn1 | 3.7
44 | CC1(C)C(=O)N(c2ccc(C#N)c(C(F)(F)F)c2)C(=O)N1CC(=O)Nc1cnc2ccccc2c1 | 14.6
45 | CC1(C)C(=O)N(c2ccc(C#N)c(C(F)(F)F)c2)C(=O)N1CCNc1ccnc2ccccc12 | 8.7
46 | CC1(C)C(=O)N(c2ccc(C#N)c(C(F)(F)F)c2)C(=O)N1CCN(c1ccc2ncccc2c1)c1ccc2ncccc2c1 | 6.8
47 | CC1(C)C(=O)N(c2ccc(C#N)c(C(F)(F)F)c2)C(=O)N1CCCNc1cccc2ncccc12 | 25.7
48 | CC1(C)C(=O)N(c2ccc(C#N)c(C(F)(F)F)c2)C(=O)N1CC(=O)NCc1ccccn1 | 33.7
49 | CC1(C)C(=O)N(c2ccc(C#N)c(C(F)(F)F)c2)C(=O)N1CCN(c1ccc(-c2ccncc2)cc1)c1ccc(-c2ccncc2)cc1 | > 50
50 | CC(C)(c1ccc(OC[C@H](O)CO)cc1)c1ccc(OC[C@H](O)CCl)cc1 | 40.4
51 | CC1(C)C(=O)N(c2ccc(C#N)c(C(F)(F)F)c2)C(=O)N1CCNc1cccc2ccccc12 | 19.5
52 | CC1(C)C(=O)N(c2ccc(C#N)c(C(F)(F)F)c2)C(=O)N1CCNc1ccccn1 | 13.1
53 | CC1(C)C(=O)N(c2ccc(C#N)c(C(F)(F)F)c2)C(=O)N1CC(=O)NCc1cccnc1 | 22.1
54 | CC1(C)C(=O)N(c2ccc(C#N)c(C(F)(F)F)c2)C(=O)N1CCNc1cccc2ncccc12 | 1.3
55 | Cc1ccc(NCCN2C(=O)N(c3ccc(C#N)c(C(F)(F)F)c3)C(=O)C2(C)C)c2cccnc12 | 9.8
56 | CC1(C)C(=O)N(c2ccc(C#N)c(C(F)(F)F)c2)C(=O)N1CCn1cc(C(F)(F)F)cn1 | 8.9
57 | CC1(C)C(=O)N(c2ccc(C#N)c(C(F)(F)F)c2)C(=O)N1CCNc1ccc2cnccc2c1 | 5.1
58 | CC1(C)C(=O)N(c2ccc([N+](=O)[O-])c(C(F)(F)F)c2)C(=O)N1CC(=O)Nc1ccccn1 | > 50
59 | CC1(C)C(=O)N(c2ccc(C#N)c(C(F)(F)F)c2)C(=O)N1CCNc1cnccn1 | 10.6
60 | CC1(C)C(=O)N(c2ccc(C#N)c(C(F)(F)F)c2)C(=O)N1CCNc1ccc2ncccc2c1 | 5.4

Test system: not listed separately
Experiment: Antiproliferative activity against human L02 cells assessed as inhibition of cell growth incubated for 48 hrs by CCK-8 assay
Format: toxicity, cell-based
Conditions: not given

Row | SMILES | IC50 at 48 h [µM]
61 | C[C@]12CC[C@H](O)CC1=CC[C@@H]1[C@@H]2CC[C@]2(C)C(n3cnc4ccccc43)=CC[C@@H]12 [GALETERONE] | > 100

Test system: not listed separately
Experiment: Toxicity in NSG mouse xenografted with human 22Rv1 cells assessed as effect on body weight at 30 mg/kg, IG administered once daily for 21 days
Format: organism-based, CWR22R
Conditions: in vivo, po, 504 h, time 21 day

Row | SMILES | Activity
62 | CNC(=O)c1ccc(N2C(=S)N(c3ccc(C#N)c(C(F)(F)F)c3)C(=O)C2(C)C)cc1F [ENZALUTAMIDE] | Non-Toxic
63 | C[C@]12CC[C@H](O)CC1=CC[C@@H]1[C@@H]2CC[C@]2(C)C(c3cccnc3)=CC[C@@H]12 [ABIRATERONE] | Non-Toxic

Test system: DU-145
Experiment: Antiproliferative activity against AR-negative human DU-145 cells assessed as inhibition of cell growth incubated for 48 hrs by CCK-8 assay
Format: functional, cell-based
Conditions: DU-145, 48 h

Row | SMILES | IC50 [µM]
64 | CC1(C)C(=O)N(c2ccc(C#N)c(C(F)(F)F)c2)C(=O)N1CCNc1cccc2ccncc12 | > 50
65 | CC1(C)C(=O)N(c2ccc(C#N)c(C(F)(F)F)c2)C(=O)N1CCNc1ccc(C#N)c2ncccc12 | > 50
66 | CC1(C)C(=O)N(c2ccc(C#N)c(C(F)(F)F)c2)C(=O)N1CCNc1ccc2ccncc2c1 | > 50
67 | CC1(C)C(=O)N(c2ccc(C#N)c(C(F)(F)F)c2)C(=O)N1CCNc1ccc([N+](=O)[O-])c2ncccc12 | > 50
68 | Cc1ccc(NCCN2C(=O)N(c3ccc(C#N)c(C(F)(F)F)c3)C(=O)C2(C)C)c2cccnc12 | > 50
69 | CC1(C)C(=O)N(c2ccc(C#N)c(C(F)(F)F)c2)C(=O)N1CCNc1ccc2cnccc2c1 | 33

Test system: LNCaP
Experiment: Antiproliferative activity against human LNCaP cells assessed as inhibition of cell growth incubated for 48 hrs by CCK-8 assay
Format: functional, cell-based
Conditions: not given

Row | SMILES | IC50 [µM]
70 | C[C@]12CC[C@H](O)CC1=CC[C@@H]1[C@@H]2CC[C@]2(C)C(n3cnc4ccccc43)=CC[C@@H]12 [GALETERONE] | 2
